pIC50: −log10 of the molar value.
Legend:
human STAT6/pIL-4Rα = target: T1, human STAT6/pIL-4Rα (Homo sapiens, UniProt P42226); assay: Binding inhibitory activity between human STAT6/pIL-4Rα by fluorescence polarization method; details: rhSTAT6 (123-658) / FAM-pIL-4Rα peptide
T1 construct: histidine tag
T1 sequence (P42226 123-658): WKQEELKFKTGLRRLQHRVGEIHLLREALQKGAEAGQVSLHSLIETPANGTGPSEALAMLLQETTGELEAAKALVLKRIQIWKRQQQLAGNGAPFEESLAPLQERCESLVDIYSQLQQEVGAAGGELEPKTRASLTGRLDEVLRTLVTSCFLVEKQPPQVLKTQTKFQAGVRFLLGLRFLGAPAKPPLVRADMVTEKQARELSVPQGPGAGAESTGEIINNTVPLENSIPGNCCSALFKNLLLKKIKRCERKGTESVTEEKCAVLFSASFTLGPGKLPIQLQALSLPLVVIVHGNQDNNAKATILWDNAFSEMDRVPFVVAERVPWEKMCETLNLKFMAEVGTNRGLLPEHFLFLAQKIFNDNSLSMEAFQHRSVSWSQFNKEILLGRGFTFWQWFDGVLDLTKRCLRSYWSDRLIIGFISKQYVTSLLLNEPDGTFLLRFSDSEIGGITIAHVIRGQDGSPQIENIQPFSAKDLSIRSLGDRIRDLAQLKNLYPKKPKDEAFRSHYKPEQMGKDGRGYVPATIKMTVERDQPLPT
How it was run: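 His-tagged human STAT6 (residues 123–658, E. coli-expressed) was preincubated with compound for 30 min at RT in the dark, in buffer e.g. 50 mM NaCl, 10 mM HEPES pH 7.0, 1 mM DTT, 1 mM EDTA, 0.01% NP-40. FAM-pIL-4Rα peptide was then added for 30 min. Fluorescence polarisation was read at 485/535 nm, with IC50 interpolated linearly between two points flanking 50%.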

human STAT6 = assay: Human STAT6 dependent reporter activity (IL-4 stimulated STAT6 reporter assay using STAT6-HEK293 cells); format: cell-based; details: IL-4 stimulation, luciferase activity; for inhibition at 0.1 µM / inhibition at 1 µM: Homo sapiens, read-out: Inhibition rate (%)

Structure (SMILES) | pIC50 (human STAT6/pIL-4Rα) | inhibition at 0.1 µM (human STAT6; compound 0.1 μmol/L) | inhibition at 1 µM (human STAT6; compound 1 μmol/L) | Inhibition rate (%) (human STAT6; compound 0.1 μmol/L) | Inhibition rate (%) (human STAT6; compound 1 μmol/L)
Cc1nn(C)c(=O)n1-c1ccc(-c2cc3ccnc(C(=O)Nc4ccc(F)c(C(N)=O)c4)c3n2CC2CCC2)cc1 [Ex. 121] | 6.38 | 40% | 97% | – | –
Cc1nn(C)c(=O)n1-c1ccc(-c2cc3ccnc(C(=O)Nc4cccc(C(N)=O)c4F)c3n2CC2CCC2)cc1 [Ex. 122] | 6.16 | 23% | 89% | – | –
Cc1nn(C)c(=O)n1-c1ccc(-c2cc3ccnc(C(=O)Nc4cccc(C(N)=O)c4F)c3n2CC2(C#N)CC2)cc1 [Ex. 123] | 6.30 | 40% | 96% | – | –
Cc1nn(C)c(=O)n1-c1ccc(-c2cc3cc(C(F)(F)F)cc(C(=O)Nc4ccc(F)c(C(N)=O)c4)c3n2CC2(C#N)CC2)cc1 [Ex. 124] | 6.35 | 57% | 99% | – | –
Cc1nn(C)c(=O)n1-c1ccc(-c2cc3cc(C(F)(F)F)cc(C(=O)Nc4cccc(C(N)=O)c4F)c3n2CC2(C#N)CC2)cc1 [Ex. 125] | 6.59 | 52% | 99% | – | –
Cc1nn(C)c(=O)n1-c1ccc(-c2cc3cc(C(F)(F)F)cc(C(=O)Nc4cccc(C(N)=O)c4)c3n2CC2(C#N)CC2)cc1 [Ex. 126] | 6.62 | 62% | – | – | –
CCn1c(-c2ccc(-n3c(C)nn(C)c3=O)nn2)cc2cc(C(F)(F)F)cc(C(=O)Nc3cccc(C(N)=O)c3F)c21 [Ex. 127] | 6.60 | 38% | 99% | – | –
CCn1c(-c2ccc(N3C(=O)C(C)CC3C)cc2)cc2ccnc(C(=O)Nc3ccc(F)c(C(N)=O)c3)c21 (centres unmarked) [Ex. 129] | 6.23 | – | – | 8% | 75%
CCn1c(-c2ccc(N3C(=O)C(C)CC3C)cc2)cc2ccnc(C(=O)Nc3ccc(F)c(C(N)=O)c3)c21 (centres unmarked) [Ex. 130] | 6.44 | – | – | 74% | 96%
CCn1c(-c2ccc(N3C(=O)C(C)CC3C)cc2)cc2ccnc(C(=O)Nc3cccc(C(N)=O)c3)c21 (centres unmarked) [Ex. 131] | 6.29 | 56% | 92% | – | –
COCCn1c(-c2ccc(N3C(=O)C(C)CC3C)cc2)cc2cc(C(F)(F)F)nc(C(=O)Nc3cccc(C(N)=O)c3)c21 (centres unmarked) [Ex. 132] | 6.28 | 70% | 96% | – | –
COCCn1c(-c2ccc(N3C(=O)C(C)CC3C)cc2)cc2cc(C(F)(F)F)nc(C(=O)Nc3ccc(F)c(C(N)=O)c3)c21 (centres unmarked) [Ex. 133] | 6.64 | 80% | – | – | –
CCn1c(-c2ccc(N3C(=O)C(C)CC3C)cc2)cc2cc(C(F)(F)F)nc(C(=O)Nc3cccc(C(N)=O)c3)c21 (centres unmarked) [Ex. 134] | 6.43 | 48% | 99% | – | –
CCn1c(-c2ccc(N3C(=O)C(C)CC3C)cc2)cc2cc(C(F)(F)F)nc(C(=O)Nc3ccc(F)c(C(N)=O)c3)c21 (centres unmarked) [Ex. 135] | 6.28 | 85% | – | – | –
COCCn1c(-c2ccc(N3C(=O)C(C)CC3C)cc2)cc2ccnc(C(=O)Nc3cccc(C(N)=O)c3)c21 (centres unmarked) [Ex. 136] | 6.32 | 61% | – | – | –
COCCn1c(-c2ccc(N3C(=O)C(C)CC3C)cc2)cc2ccnc(C(=O)Nc3ccc(F)c(C(N)=O)c3)c21 (centres unmarked) [Ex. 137] | 6.55 | 62% | – | – | –
COCCn1c(-c2ccc(-n3c(C)nn(C)c3=O)cc2)cc2cc(C(F)(F)F)cc(COc3cccc(C(N)=O)c3)c21 [Ex. 138] | 6.43 | 35% | 93% | – | –
COCCn1c(-c2ccc(-n3c(C)nn(C)c3=O)cc2)cc2cc(C(F)(F)F)cc(CNc3cccc(C(N)=O)c3)c21 [Ex. 139] | 5.71 | 8% | 69% | – | –

Structure (SMILES) | pIC50 (human STAT6/pIL-4Rα) | inhibition at 0.1 µM (human STAT6; compound 0.1 μmol/L) | inhibition at 1 µM (human STAT6; compound 1 μmol/L) | Inhibition rate (%) (human STAT6; compound 0.1 μmol/L) | Inhibition rate (%) (human STAT6; compound 1 μmol/L)
CCn1c(-c2ccc(-n3c(C)nn(C)c3=O)cc2)c(I)c2cncc(C(=O)Nc3ccc(F)c(C(N)=O)c3)c21 [Ex. 140] | 5.57 | 3% | 45% | – | –
CCn1c(-c2ccc(-n3cnn(C)c3=O)cc2)c(Cl)c2cc(C(F)(F)F)cc(C(=O)Nc3ccc(F)c(C(N)=O)c3)c21 [Ex. 142] | 6.52 | 94% | 100% | – | –
COCCn1c(-c2ccc(-n3c(C)nn(C)c3=O)cc2)c(Cl)c2cc(C(F)(F)F)cc(C(=O)Nc3ccc(F)c(C(N)=O)c3)c21 [Ex. 143] | 6.41 | 87% | 99% | – | –
CCn1c(-c2ccc(-n3ncn(C)c3=O)cc2)cc2ccnc(C(=O)Nc3ccc(F)c(C(N)=O)c3)c21 [Ex. 144] | 6.43 | 48% | 99% | – | –
CCn1c(-c2ccc(-n3c(C)nn(C)c3=O)nc2)cc2cccc(C(=O)Nc3cccc(C(N)=O)c3F)c21 [Ex. 145] | 6.55 | 53% | 97% | – | –
CCn1c(-c2ccc(N3CCCC3=O)cc2)cc2cc(C(F)(F)F)cc(C(=O)Nc3ccc(F)c(C(N)=O)c3)c21 [Ex. 146] | 6.12 | 55% | 87% | – | –
CCn1c(-c2ccc(N3C(=O)C(C)CC3C)cc2)cc2ccnc(C(=O)Nc3ccc(F)c(C(=O)NCC#N)c3)c21 (centres unmarked) [Ex. 147] | 6.11 | 48% | 91% | – | –
CCn1c(-c2ccc(C(=O)N(C)C)cc2)cc2ccnc(C(=O)Nc3ccc(F)c(C(=O)NCC#N)c3)c21 [Ex. 148] | 6.48 | 86% | – | – | –
CCn1c(-c2ccc(NC(C)=O)cc2)cc2ccnc(C(=O)Nc3ccc(F)c(C(=O)NCC#N)c3)c21 [Ex. 149] | 6.48 | 25% | 84% | – | –
CCn1c(-c2ccc(N3CCOCC3=O)cc2)cc2ccnc(C(=O)Nc3ccc(F)c(C(=O)NCC#N)c3)c21 [Ex. 150] | 6.62 | 38% | 89% | – | –
CCn1c(-c2ccc(-n3c(C)nn(C)c3=O)nc2)cc2cccc(C(=O)Nc3ccc(F)c(C(N)=O)c3)c21 [Ex. 151] | 6.21 | 26% | 77% | – | –
CCn1c(-c2ccc(-n3c(C)nn(C)c3=O)cc2C(F)(F)F)cc2cc(C(F)(F)F)cc(C(=O)Nc3ccc(F)c(C(N)=O)c3)c21 [Ex. 152] | 6.19 | 38% | 84% | – | –
CCn1c(-c2ccc(C(=O)N(C)C)cc2)cc2cc(C(F)(F)F)cc(C(=O)Nc3ccc(F)c(C(N)=O)c3)c21 [Ex. 153] | 6.03 | 25% | 93% | – | –
CCn1c(-c2ccc(-n3c(C(F)F)nn(C)c3=O)cc2)cc2cc(C(F)(F)F)cc(C(=O)Nc3ccc(F)c(C(N)=O)c3)c21 [Ex. 154] | 6.55 | 52% | 99% | – | –
CCc1nn(C)c(=O)n1-c1ccc(-c2cc3cc(C(F)(F)F)cc(C(=O)Nc4ccc(F)c(C(N)=O)c4)c3n2CC)cc1 [Ex. 155] | 6.42 | 69% | 100% | – | –
CCn1c(-c2ccc(-n3ncn(C)c3=O)cc2)cc2cccc(C(=O)Nc3ccc(F)c(C(N)=O)c3)c21 [Ex. 156] | 6.40 | 46% | 99% | – | –
CCn1c(-c2ccc(N3C(=O)C(C)CC3C)nc2)cc2cc(C(F)(F)F)cc(C(=O)Nc3ccc(F)c(C(N)=O)c3)c21 (centres unmarked) [Ex. 157] | 6.51 | 62% | – | – | –

Source: patent US20260092054A1, “FUSED RING COMPOUND AND PHARMACEUTICAL CONTAINING SAME” (KAKEN PHARMACEUTICAL CO., LTD., priority 2022, published 2026)
